Values quoted from earlier work in US12667579B2, “Pharmaceutical compositions for clinical nutrition” (BAXTER INTERNATIONAL INC., priority 2021, dated 2026).

How the values were obtained:
[1] = compounded with 96 mEq/L of calcium chloride
[2] = test system: serum alkaline phosphatases
[3] = ingested orally or enterally

| Molecule | concentration up to which SGP is stable in compounded solutions [1] | amount hydrolyzed each day ([2]; individuals with normal serum alkaline phosphatase, hydrolysis completely in plasma) [mmol] | plasma concentration at which maximum hydrolysis occurs ([2]; plasma, hydrolysis to inorganic phosphate and glycerol) [µM] | solubility in acetone (acetone) | solubility in ethanol (ethanol) | solubility in water (water) | share of ingested aluminum reaching the blood stream [3] [%] |
| --- | --- | --- | --- | --- | --- | --- | --- |
| sodium glycerophosphate [SGP] | up to 120 mmol/L | 12 to 15 | > 700 | essentially insoluble | essentially insoluble | freely soluble | – |
| [Al] [aluminum] | – | – | – | – | – | – | < 1 |
